The test system of the assay is ADP-stimulated platelets. The assay is described as follows: ADP-stimulated platelet aggregation assay (gel-filtered human platelets). Particulars: inhibition of ADP-stimulated platelet aggregation by 50% relative to control; gel-filtered human platelets 2×10^8 per ml, fibrinogen 100 ug/ml, Ca^2+ 1 mM, 10 mM ADP, 37° C. The assay is classed as cell-based. From the text: The activity of these fibrinogen receptor antagonists is illustrated below. One test used to evaluate fibrinogen receptor antagonist activity is based on evaluation of inhibition of ADP-stimulated platelets. Aggregation requires that fibrinogen bind to and occupy the platelet fibrinogen receptor site. Inhibitors of fibrinogen binding inhibit aggregation. In the ADP-stimulated platelet aggregation assay used to determine inhibition associated with these fibrinogen receptor antagonists, human platelets are isolated from fresh blood, collected into acid citrate/dextrose by differential centrifugation followed by gel filtration on Sepharose 2B in divalent ion-free Tyrode's buffer (pH 7.4) containing 2% bovine serum albumin.
Platelet aggregation is measured at 37° C. in a Chronolog aggregometer. The reaction mixture contains gel-filtered human platelets (2×10^8 per ml), fibrinogen (100 micrograms per ml (ug/ml)), Ca^2+ (1 mM), and the fibrinogen receptor antagonists tested. The aggregation is initiated by adding 10 mM ADP 1 minute after the other components are added. The reaction is then allowed to proceed for at least 2 minutes. The extent of inhibition of aggregation is expressed as the percentage of the rate of aggregation observed in the absence of inhibitor. The IC50 is the dose of a particular compound inhibiting aggregation by 50% relative to a control lacking the compound. […]

As for `C[C@H](CC(=O)O)NC(=O)CN1CCC[C@@H](CCC2CCNCC2)C1=O`, the IC50 (in general, the concentration that gives 50% inhibition) worked out at 100 µM.

The values are drawn from patent US5665882A, “Pyridyl ethylation of lactams” (Merck & Co., Inc., priority 1996, dated 1997).
